# In patent publication US9850293B2, “Targeting trastuzumab-resistant HER2+ breast cancer with a HER3-targeting nanoparticle” (priority 2014, dated 2017):
# Legend:
# [1] = system: HER2+ tumors (MDA-MB-435); experiment: In vivo tumor toxicity (tumor growth); parameters: species or system mouse
# JIMT-1 cell line = experiment: Tumor cell killing in culture, pre-existing resistance; format: cell-based, human; conditions: broad concentration range
# Protocol: N=3. *, p<0.05 compared to parental. […] N=3. […] Treatments were compared to mock (saline)-treatment. […] N=3. *, p<0.05 compared to parental. […] N=3.
# (§1) The efficacy of HerDox was also examined on a cell line with pre-existing resistance.
# (§2) The contribution of HER3 to targeted toxicity was evaluated by assessing whether pre-adsorbing HerDox with a peptide comprising the ligand-binding domain of HER3 blocked cytotoxicity.
# [2] = Off-target toxicity in treated mice (weight, heart, liver)
# Protocol: Relative cell survival (as % of untreated cells) on day 3 of treatment. (+Her), pre-incubation of MDA-MB-435 cells with receptor-blocking ligand (recombinant heregulin) before receiving HerDox. N=3. […] Tissues were harvested from independently injected mice euthanized at indicated time points after injection and fluorescence intensity/tissue acquired using a multimode imager. […] Bar, about 4 μm. […] Day 0=3 days before tail vein injections (mice received daily injections for 7 days). […] Day 0=3 days before tail vein injections (mice received daily injections for 7 days). […] Micrographs (20× magnification) in (E) also show representative H&E stained specimens of myocardia and immunofluorescent specimens of livers from treated mice. Green fluorescence in nuclei indicates apoptosis (positive TUNEL stain).
# MDA-MB-435 (HER2+) = experiment: Targeted toxicity, cell survival by MTT assay; format: cell-based, human; conditions: Dox 0.5 μM; HerPBK10 0.1 μM; day 3
# Protocol: (§3) FIG. 7 illustrates targeted toxicity. […] Cell titer was determined by metabolic (i.e. MTT) assay. FIG. 7 upper panel illustrates the effect of HerDox on MDA-MB-231 (HER2−) and MDA-MB-435 (HER2+) cell survival. Relative surviving cell numbers are represented as a % of corresponding untreated cells. […] Relative survival (as % of untreated cells) is shown for Day 3 of treatment.
# FIG. 8 illustrates receptor specificity. MDA-MB-435 (HER2+) cells were incubated with free ligand (eHRG) at 10× molar excess of HerDox for one hour at 4° C. Media was aspirated to remove free eHRG and fresh media containing HerDox (0.5 μM) was added to cells. Cell survival was measured by MTT assay and represented as a % of relative untreated cell numbers.
# (§4) N=3. […] Bar, about 4 μm. […] (E) compares HerDox and Dox on off-target tissue. […] Green fluorescence in nuclei indicates apoptosis (positive TUNEL stain).
# (§5) By three days, HerDox reduced HER2+ cell numbers by over 75% whereas HER2− cell survival was unaffected (FIG. 7). […] These findings emphasize the importance of targeting by showing that the untargeted drug affects nontarget (i.e. HER2−) cells. […] To test receptor targeting, the inventors used free heregulin ligand (Her or eHRG) as a competitive inhibitor. […] As a final in vitro challenge, the inventors tested whether HerDox induces toxicity specifically to HER2+ cells in a mixed culture of HER2+ and HER2− breast cancer cells. To do this, the inventors produced a HER2− cell line tagged with green fluorescent protein (GFP) for cell identification in the mixed culture (FIG. 9-A). […] Altogether, these findings indicate that HerDox has the capacity to preferentially target toxicity to HER2+ cells. […] In serum-containing media, no such loss from HerDox is detectable. […] Co-migration of HerPBK10 bands further verified that the conjugates remained intact in the cell media.
# HER2+ tumors = experiment: HerDox and Dox biodistribution (Dox fluorescence imaging); conditions: tissues harvested ~3 h after injection
# Source text: FIG. 11 (A) depicts imaging of live mice after IV delivery of HerDox. Tumors are indicated by arrows.
# MDA-MB-435 cells = experiment: Intracellular translocation of HerDox and Dox (microscopy); format: cell-based, human
# Protocol: Live (unfixed) cells were imaged by brightfield and fluorescence microscopy.
# Live (unfixed) cells were imaged by DIC and confocal fluorescence microscopy.
# FIG. 15 illustrates HerDox trafficking in breast cancer cells. Cells incubated with HerDox at 37° C. were fixed at the indicated time points and processed for immunofluorescence using an antibody against HerPBK10. Images were captured using confocal microscopy under fluorescence and brightfield. n, nucleus; Bar, ˜8 microns.
# MDA-MB-231 (HER2−) = experiment: Targeted toxicity, cell survival by MTT assay; format: cell-based, human; conditions: 0.5 μM with respect to Dox; HerPBK10 0.1 μM; day 3
# Protocol: as §3, §4, §5
# JIMT-1 tumors = experiment: Trastuzumab-resistant tumor growth in vivo; parameters: species or system mouse; conditions: 0.004 mg Dox/kg/injection, twice-weekly IV
# Protocol: (§6) Tumor volumes were measured by calipers. Day 0 corresponds to first day of treatment. N=10 tumors per treatment.
# as §6, §1, §2
# [3] = T-DM1; untargeted Dox in patients; cited from earlier work
# TSPO = TSPO (Homo sapiens, UniProt P30536); experiment: S2Ga binding to recombinant TSPO (ultrafiltration, spectra); conditions: 1 μM
# TSPO, sequence (P30536 whole entry): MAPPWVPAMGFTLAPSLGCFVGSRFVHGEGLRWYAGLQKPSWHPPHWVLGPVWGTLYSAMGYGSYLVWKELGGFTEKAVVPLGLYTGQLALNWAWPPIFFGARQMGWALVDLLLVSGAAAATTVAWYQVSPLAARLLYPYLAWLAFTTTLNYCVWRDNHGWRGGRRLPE
# Protocol: (A) illustrates that S2Ga interacts with TSPO. […] Retentates were evaluated for the presence of protein-bound corrole by measuring the absorbance and fluorescence spectra. Where indicated, PK11195 was used as a competitive inhibitor for the porphyrin binding site on TSPO. (B) further illustrates that S2Ga interacts with TSPO. […] Retentates were evaluated for the presence of protein-bound corrole by measuring the absorbance and fluorescence spectra. Where indicated, PK11195 was used as a competitive inhibitor for the porphyrin binding site on TSPO. […] MDA-MB-435 cells were transfected with a plasmid expressing exogenous TSPO 24 hours before cells were treated with HerGa and examined for HerGa-mediated mitochondrial disruption, evidenced by reduced red fluorescent dye accumulation in mitochondria and accumulated green fluorescence in the cytoplasm.
# TSPO translocates porphyrins and other metabolites into mitochondria for processing as well as interacts with components of the mitochondrial permeability transition pore complex, and is critical for cellular homeostasis, as knock-outs of TSPO are embryonic lethal in mice.
# human HER2+ tumor cells = experiment: HerMn toxicity, crystal violet survival; format: cell-based; conditions: 24 hours
# Protocol: (§7) Each cell line received the indicated concentration of HerMn or S2Mn and was assessed for survival 24 hours later via crystal violet (CV) stain. N=3 per conc, from 3 separate experiments.
# human HER2− tumor cells = experiment: HerMn toxicity, crystal violet survival; format: cell-based; conditions: 24 hours
# Protocol: as §7
compound,measurement,setting,value
"COc1cccc2c1C(=O)c1c(O)c3c(c(O)c1C2=O)C[C@@](O)(C(=O)CO)C[C@@H]3O[C@H]1C[C@H](N)[C@H](O)[C@H](C)O1 [Dox, doxorubicin, reference compound]",effect on tumor growth,"[1]; 0.004 mg/kg with respect to Dox, daily tail vein injections for 7 days",slows tumor growth
same,dose eliciting tumor growth ablation / tumor cell death,"[1]; mice, dose of Dox",more than 0.04 mg/kg
same,response of JIMT-1 cells,JIMT-1 cell line,only partially responsive
same,heart gross appearance,[2]; 25 days following injections,slightly enlarged and dilated
same,myocardium morphology (histochemistry),[2]; 25 days following injections,"focal degeneration, myofibrillar loss, increased cytosoplasmic vacuolization, and nuclear condensation or dissolution"
same,cardiac function (echocardiograms),"[2]; mouse, in vivo","modest to marked reductions in stroke volume, cardiac output, and left ventricular internal dimension and volume"
same,liver and heart toxicity,[2]; systemic delivery in vivo,causing liver tissue and myocardial damage
same,effect on HER2+ cell survival,MDA-MB-435 (HER2+),reduced both HER2+ and HER2− cells by the same order of magnitude
same,fluorescence in kidneys,HER2+ tumors,detectable fluorescence
same,fluorescence in liver,HER2+ tumors,detectable fluorescence
same,"fluorescence in other tissues (heart, spleen, lungs, skeletal muscle)",HER2+ tumors,Lower levels of fluorescence were also detectable in the lungs and skeletal muscle
same,fluorescence in tumors,HER2+ tumors,detectable fluorescence
same,intracellular location of Dox fluorescence,"MDA-MB-435 cells; 0 min of uptake, 0.5 μM",already found inside the cell at the nuclear periphery
same,intranuclear pattern of Dox in live cells,"MDA-MB-435 cells; confocal, live cells",accumulates in the cell nucleus
same,effect on HER2− cell survival,MDA-MB-231 (HER2−),reduced both HER2+ and HER2− cells by the same order of magnitude
same,effect on JIMT-1 tumor growth,JIMT-1 tumors,only slight
T-DM1,therapeutic dose required,[3],about 3.6 mg/kg
sulfonated gallium(III) corrole [S2Ga],binding to TSPO with PK11195,TSPO,competitively inhibited by PK11195
same,binding to TSPO,"TSPO; ~20 min, room temperature",directly binds
sulfonated manganese(III) corrole [S2Mn],toxicity to HER2+ tumor cells,human HER2+ tumor cells,no effect on cell survival
same,toxicity to HER2− tumor cells,human HER2− tumor cells,no effect on cell survival
